Test results as given in patent US20220169639A1 (priority 2018, published 2022).

tested on: HBeAg (surrogate marker for cccDNA) in HepDES19 cells; assay: Engineered HepDES19 primary screen assay (HBeAg ELISA); type: cell-based, HBV; conditions: Hepatitis B virus, 120 h, HBeAg in culture supernatant, 5 days incubation, read-out: IC50 (HepDES19 primary screen assay, inhibition of extracellular HBeAg level)
Source text: The assay was employed to screen for cccDNA inhibitors. HepDES19 is a cccDNA-producing cell line. In this cell line, HBeAg in the cell culture supernatant as surrogate marker, as HBeAg production depends on cccDNA level and activity. HepDES19 is an engineered cell line which contains a 1.1 unit length HBV genome, and pgRNA transcription from the transgene is controlled by Tetracycline (Tet). In the absence of Tet, pgRNA transcription will be induced, but HBV e antigen (HBeAg) could not be produced from this pgRNA due to very short leader sequence before the HBeAg start codon and the start codon is disrupted. Only after cccDNA is formed, the missing leader sequence and start codon mutation would be restored from the 3′-terminal redundancy of pgRNA, and then HBeAg could be synthesized. Therefore, HBeAg could be used as a surrogate marker for cccDNA (Zhou, T. et al., Antiviral Res. (2006), 72(2), 116-124; Guo, H. et al., J. Virol. (2007), 81(22), 12472-12484).
HepDES19 cells were seeded at 2×10^6 cells per T150 flask and cultured with the culture medium (Dulbecco's Modified Eagle Medium: Nutrient Mixture F-12 [DMEM-F12, Gibco Cat. 11320-82], 10% Fetal Bovine Serum [FBS, Clontech Cat. 631101], 0.1 mM Non-Essential Amino Acids Solution [NEAA, Gibco Cat. 11140-050], 50 μg/mL Penicillin-Streptomycin [PS, Invitrogen Cat. 15140-163], 500 μg/mL Geneticin [G418, Invitrogen Cat. 10131-027]) containing 3 μg/mL Tet (Sigma, Cat. 87128) for 5 days. Cells were then seeded at 4×10^6 cells per T150 in the same culture medium as described above in the absence of Tet for 8 days. Cells were then harvested and frozen at density of 2×10^6 cells per mL. For compound testing, the frozen cells were thawed and seeded into 96-well plates at a density of 6×10^4 cells per well. At 24 hours after seeding, half log serial dilutions of compounds made with Dimethyl sulfoxide (DMSO, Sigma, Cat. D2650) were further diluted with the same culture medium as described above before they were added to the cells to reach desired final compound concentrations and 1% DMSO concentration. Plates were then incubated at 37° C. for another 5 days before measurement of HBeAg level and cell viability. Intracellular HBeAg level were measured with enzyme-linked immunosorbent assay (ELISA) kit (Shanghai Kehua Diagnostic Medical Products Co., Ltd). Cell viability was assessed using Cell Counting Kit-8 (DonJindo, Cat. CK04-20). IC50 values were derived from the dose-response curve using 4 parameter logistic curve fit method.
The compounds of the present invention were tested for their capacity to inhibit extracellular HBeAg level as described herein.

Q: How did the IC50 turn out when `CC(C)[C@@H](NCCOc1cc(C(F)(F)F)ccc1-c1cc(=O)c2cccc(Cl)c2o1)C(=O)O` [Example 036, (2R)-2-[2-[2-(8-chloro-4-oxo-chromen-2-yl)-5-(trifluoromethyl)phenoxy]ethylamino]-3-methyl-butanoic acid] was run?
A: 2030 nM

Q: `CC(C)COc1ccc(-c2cc(=O)c3cccc(Cl)c3o2)c(OCCN2CC[C@@H](C(=O)O)C2)c1` [Example 039, (3R)-1-[2-[2-(8-chloro-4-oxo-chromen-2-yl)-5-isobutoxy-phenoxy]ethyl]pyrrolidine-3-carboxylic acid] was tested. Which IC50 did it give?
A: 3480 nM

Q: Which IC50 does the source give for `NC(=O)C1CCN(CCOc2cc(Br)ccc2-c2cc(=O)c3cccc(Cl)c3o2)C1` (centres unmarked) [Example 083, 1-[2-[5-bromo-2-(8-chloro-4-oxo-chromen-2-yl)phenoxy]ethyl]pyrrolidine-3-carboxamide] here?
A: 560 nM

Q: Which IC50 does the source give for `Cc1ccc(S(=O)(=O)NC(=O)NCCCOc2cc(C)ccc2-c2cc(=O)c3cccc(Cl)c3o2)cc1` [Example 156, 1-[3-[2-(8-chloro-4-oxo-chromen-2-yl)-5-methyl-phenoxy]propyl]-3-(p-tolylsulfonyl)urea] here?
A: 4140 nM

Q: Which IC50 does the source give for `COc1cc(OCCOCCN2CC[C@H](C(=O)O)C2)c(-c2cc(=O)c3cccc(Cl)c3o2)cc1C` [Example 051, (3S)-1-[2-[2-[2-(8-chloro-4-oxo-chromen-2-yl)-5-methoxy-4-methyl-phenoxy]ethoxy]ethyl]pyrrolidine-3-carboxylic acid] here?
A: 7860 nM

Q: `CC(C)(C)CC(NCCCOc1cc(C(F)(F)F)ccc1-c1cc(=O)c2cccc(Cl)c2o1)C(=O)O` (centres unmarked) [Example 011, 2-[3-[2-(8-chloro-4-oxo-chromen-2-yl)-5-(trifluoromethyl)phenoxy]propylamino]-4,4-dimethyl-pentanoic acid] was tested. Which IC50 did it give?
A: 3610 nM

Q: With `Cc1cc(-c2cc(=O)c3cccc(Cl)c3o2)c(OCCCNC2CC(C(=O)O)C2)cc1Cl` (centres unmarked) [Example 046, 3-[3-[5-chloro-2-(8-chloro-4-oxo-chromen-2-yl)-4-methyl-phenoxy]propylamino]cyclobutanecarboxylic acid] as the molecule, how does the IC50 read?
A: 4370 nM

Q: How did the IC50 turn out when `COc1cc(OCCOCCN2CC[C@@H](C(=O)O)C2)c(-c2cc(=O)c3cccc(Cl)c3o2)cc1C` [Example 050, (3R)-1-[2-[2-[2-(8-chloro-4-oxo-chromen-2-yl)-5-methoxy-4-methyl-phenoxy]ethoxy]ethyl]pyrrolidine-3-carboxylic acid] was run?
A: 6930 nM

Q: How did the IC50 turn out when `O=c1cc(-c2ccc(Br)cc2OC2CCN(S(=O)(=O)C3CC3)CC2)oc2c(Cl)cccc12` [Example 108] was run?
A: 1140 nM

Q: Which IC50 does the source give for `O=C(O)C1CCN(CCCOc2cc(C(F)(F)F)ccc2-c2cc(=O)c3cccc(Cl)c3o2)C1` (centres unmarked) [Example 012, 1-[3-[2-(8-chloro-4-oxo-chromen-2-yl)-5-(trifluoromethyl)phenoxy]propyl]pyrrolidine-3-carboxylic acid] here?
A: 110 nM

Q: With `CC(CC(=O)O)NCCCOc1cc(C(F)(F)F)ccc1-c1cc(=O)c2cccc(Cl)c2o1` (centres unmarked) [Example 062, 3-[3-[2-(8-chloro-4-oxo-chromen-2-yl)-5-(trifluoromethyl)phenoxy]propylamino]butanoic acid] as the molecule, how does the IC50 read?
A: 2020 nM

Q: How did the IC50 turn out when `O=C(O)C(=O)N1CCN(CCOc2cc(C(F)(F)F)ccc2-c2cc(=O)c3cccc(Cl)c3o2)C1=O` [Example 162, 2-[3-[2-[2-(8-chloro-4-oxo-chromen-2-yl)-5-(trifluoromethyl)phenoxy]ethyl]-2-oxo-imidazolidin-1-yl]-2-oxo-acetic acid] was run?
A: 80 nM

Q: `O=C(O)C1CCN(CCOc2cc(Br)ccc2-c2cc(=O)c3cccc(Cl)c3o2)C1` (centres unmarked) [Example 021, 1-[2-[5-bromo-2-(8-chloro-4-oxo-chromen-2-yl)phenoxy]ethyl]pyrrolidine-3-carboxylic acid] was tested. Which IC50 did it give?
A: 180 nM

Q: For `O=C(O)[C@@H]1CCCN1CCOc1ccccc1-c1cc(=O)c2cccc(Cl)c2o1` [Example 032, (2S)-1-[2-[2-(8-chloro-4-oxo-chromen-2-yl)phenoxy]ethyl]pyrrolidine-2-carboxylic acid], which IC50 is on record?
A: 650 nM

Q: `CCOC(=O)C(=O)NCCCOc1cc(C(F)(F)F)ccc1-c1cc(=O)c2cccc(Cl)c2o1` [Example 100, ethyl 2-[3-[2-(8-chloro-4-oxo-chromen-2-yl)-5-(trifluoromethyl)phenoxy]propylamino]-2-oxo-acetate] was tested. Which IC50 did it give?
A: 3840 nM

Q: How did the IC50 turn out when `COc1ccc2oc(-c3ccccc3OC)cc(=O)c2c1` [Example F-2, 6-methoxy-2-(2-methoxyphenyl)chromen-4-one, reference compound] was run?
A: > 50000 nM

Q: Which IC50 does the source give for `O=C(O)CNCCOc1cc(C(F)(F)F)ccc1-c1cc(=O)c2cccc(Cl)c2o1` [Example 123] here?
A: 5110 nM

Q: For `Cc1ccc(-c2cc(=O)c3cccc(Cl)c3o2)c(OCCNC(C)(C)C(=O)O)c1` [Example 058, 2-[2-[2-(8-chloro-4-oxo-chromen-2-yl)-5-methyl-phenoxy]ethylamino]-2-methyl-propanoic acid], which IC50 is on record?
A: 3410 nM

Q: `CCOC(=O)C(=O)N(C)CCOc1cc(C)ccc1-c1cc(=O)c2cccc(Cl)c2o1` [Example 137, ethyl 2-[2-[2-(8-chloro-4-oxo-chromen-2-yl)-5-methyl-phenoxy]ethyl-methyl-amino]-2-oxo-acetate] was tested. Which IC50 did it give?
A: 3400 nM

Q: Which IC50 does the source give for `O=C(O)C(CC1CCCCC1)NCCCOc1cc(C(F)(F)F)ccc1-c1cc(=O)c2cccc(Cl)c2o1` (centres unmarked) [Example 063, 2-[3-[2-(8-chloro-4-oxo-chromen-2-yl)-5-(trifluoromethyl)phenoxy]propylamino]-3-cyclohexyl-propanoic acid] here?
A: 4320 nM

Q: How did the IC50 turn out when `COC(=O)NCCOc1cc(Br)ccc1-c1cc(=O)c2cccc(Cl)c2o1` [Example 105] was run?
A: 1900 nM

Q: How did the IC50 turn out when `COc1ccc(-c2cc(=O)c3cccc(Cl)c3o2)c(OCCNC(=O)C(=O)O)c1` [Example 111, 2-[2-[2-(8-chloro-4-oxo-chromen-2-yl)-5-methoxy-phenoxy]ethylamino]-2-oxo-acetic acid] was run?
A: 180 nM

Q: `O=c1cc(-c2ccc(Br)cc2OCCN[C@H]2CC[C@H](C(=O)O)CC2)oc2c(Cl)cccc12` [Example 056, trans-4-[2-[5-bromo-2-(8-chloro-4-oxo-chromen-2-yl)phenoxy]ethylamino]cyclohexanecarboxylic acid] was tested. Which IC50 did it give?
A: 1000 nM

Q: How did the IC50 turn out when `O=C(O)C1CC(N(CCCOc2cc(C(F)(F)F)ccc2-c2cc(=O)c3cccc(Cl)c3o2)S(=O)(=O)C2CC2)C1` (centres unmarked) [Example 139, 3-[3-[2-(8-chloro-4-oxo-chromen-2-yl)-5-(trifluoromethyl)phenoxy]propyl-cyclopropylsulfonyl-amino]cyclobutanecarboxylic acid] was run?
A: 10200 nM

Q: For `O=C(NS(=O)(=O)C1CC1)[C@@H]1CCN(CCCOc2cc(C(F)(F)F)ccc2-c2cc(=O)c3cccc(Cl)c3o2)C1` [Example 067, (3R)-1-[3-[2-(8-chloro-4-oxo-chromen-2-yl)-5-(trifluoromethyl)phenoxy]propyl]-N-cyclopropylsulfonyl-pyrrolidine-3-carboxamide], which IC50 is on record?
A: 8400 nM

Q: How did the IC50 turn out when `O=C(O)C(=O)N1CCC(Oc2cc(C(F)(F)F)ccc2-c2cc(=O)c3cccc(Cl)c3o2)CC1` [Example 129] was run?
A: 4750 nM

Q: How did the IC50 turn out when `O=C(NCCCOc1cc(C(F)(F)F)ccc1-c1cc(=O)c2cccc(Cl)c2o1)C(=O)NS(=O)(=O)C1CC1` [Example 149, N-[3-[2-(8-chloro-4-oxo-chromen-2-yl)-5-(trifluoromethyl)phenoxy]propyl]-N′-cyclopropylsulfonyl-oxamide] was run?
A: 8790 nM

Q: With `O=C(NS(=O)(=O)C1CC1)C1CCCN1CCOc1cc(C(F)(F)F)ccc1-c1cc(=O)c2cccc(Cl)c2o1` (centres unmarked) [Example 072, 1-[2-[2-(8-chloro-4-oxo-chromen-2-yl)-5-(trifluoromethyl)phenoxy]ethyl]-N-cyclopropylsulfonyl-pyrrolidine-2-carboxamide] as the molecule, how does the IC50 read?
A: 2890 nM

Q: `CNS(=O)(=O)NCCCOc1cc(C)ccc1-c1cc(=O)c2cccc(Cl)c2o1` [Example 107] was tested. Which IC50 did it give?
A: 2710 nM

Q: Which IC50 does the source give for `O=c1cc(-c2ccc(C(F)(F)F)cc2OCCCN([C@H]2C[C@H](C(=O)O)C2)S(=O)(=O)c2ccccc2)oc2c(Cl)cccc12` [Example 142] here?
A: 740 nM

Q: Which IC50 does the source give for `Cc1ccc(-c2cc(=O)c3cccc(Cl)c3o2)c(OCCCNC(=O)C(=O)O)c1` [Example 120] here?
A: 2960 nM

Q: Which IC50 does the source give for `CS(=O)(=O)NC(=O)[C@H]1CCN(CCOc2cc(Br)ccc2-c2cc(=O)c3cccc(Cl)c3o2)C1` [Example 069] here?
A: 1770 nM
